Assay results as given in patent US8084592B2, “Multivalent entrain-and-amplify immunotherapeutics for carcinoma” (MannKind Corporation, priority 2005, dated 2011).
“Also recorded” adds a separate entry of the source. Non-standard residues stand in square brackets, D forms with d. No end group written: not given here. Nle = CCCC[C@H](N)C(=O)O; Nva = CCC[C@H](N)C(=O)O

Key:
MHC class I (A2.1) = MHC class I (A2.1) (Homo sapiens, UniProt P04439, D140Y/D185E/D98H/E176V/E277Q/G131W/G231S/I119V/I121R/I166T/I218V/L300P/L318F/N151K/N90K/P208A/P217A/Q86G/Q94H/R138H/R169H/T345S); assay: Binding characteristics (affinity, stability) of PSMA288-297 and analogs
[1] = tested on: T cells that recognized native PSMA288-297 peptide; assay: Cross-reactive immunogenicity of PSMA288-297 analogs, IFN-γ ELISPOT; assay type: in vivo, HHD transgenic mice; conditions: 25 μg peptide + 12.5 μg pI:C per lymph node, day 0, 3, 14, 17
Description: Groups of HHD transgenic mice (n=8) were immunized with peptide (natural epitope PSMA288-297, or analogs bearing substitutions at primary or secondary anchor residues) by direct inoculation into the inguinal lymph nodes, with 25 μg in […]+12.5 μg of pI:C to each lymph node at day 0, 3, 14 and 17.
Mice were sacrificed at 10 days after the last boost, and splenocytes prepared and assessed for IFN-γ production by ELISPOT analysis. Various numbers of splenocytes/well were stimulated with 10 μg/ml of native peptide in ELISPOT plates coated with anti-IFN-γ antibody. At 48 hours after incubation, the assay was developed and the frequency of cytokine-producing T cells that recognized native PSMA288-297 peptide was automatically counted. The data is represented in FIG. 15 as the number of spot forming colonies/well (mean of triplicates+SD).

[2] = tested on: T cell line specific for the native epitope; assay: Cross-reactivity of PSMA288-297 analogs: IFN-gamma secretion from T cell line; assay type: cell-based, HHD transgenic mice; conditions: stimulating with 10 μg/ml of analog (approximately 10 μM)
Text: A methodology was devised to allow rapid and rational screening of peptide analogs in a fashion coherent with proposed methods of use and modeling the overall immunologic properties (Kon and Koff relative to MHC interaction and TCR binding properties in an integrated fashion). In some instances, the method included generating T cell lines against a natural (non-mutated) epitope (SSX-241-49), and using an immunization strategy potent enough to generate a useful response in transgenic mice carrying human MHC (such as the A2 allele). Peptide analogs were interrogated ex vivo in the presence of competent APCs and the functional impact of T cells specific for natural (non-mutated) epitopes measured. The evaluation was done at various concentrations of analog, because the expected effect was biphasic in the case of cross reactive peptides (activating at limited concentrations and inhibiting at higher concentrations, due to antigen-induced cell death, AICD). Measurement of the following three parameters were used to define basic and useful characteristics of peptide analogs: • 1. […]
(§1) The method used for the generation of T cell lines was the following: HHD transgenic mice carrying an A2 human allele (Pascolo et al., J. Exp Med. 185(12):2043-51, 1997, which is hereby incorporated herein by reference in its entirety) were immunized with 50 μg of SSX-2 natural epitope (41-49) admixed with 25 μg of plpC at day 0, 4, 14 and 18 by bilateral administration into the inguinal lymph nodes. […] The supernatant was harvested and the concentration of IFN-gamma assessed by standard methods such as ELISA.
Using the procedures described in application Ser. Nos. 11/455,278 and 11/454,633, each of which is hereby incorporated by reference in its entirety, the binding characteristics of PSMA288-297 and analogs were assessed in comparison to each other see (see FIG. 12). […] Cross reactivity with the native epitope was assessed by using the analog peptides to stimulate IFN-gamma secretion from a T cell line specific for the native epitope, essentially as described in Example 12. […]

[3] = tested on: T cell line specific for the native epitope; assay: Cross-reactivity of PRAME425-433 analogs: IFN-gamma secretion from T cell line; assay type: cell-based, HHD transgenic mice; conditions: analog peptide at approximately 0.3 μM, normalized to native peptide
Text: A methodology was devised to allow rapid and rational screening of peptide analogs in a fashion coherent with proposed methods of use and modeling the overall immunologic properties (Kon and Koff relative to MHC interaction and TCR binding properties in an integrated fashion). In some instances, the method included generating T cell lines against a natural (non-mutated) epitope (SSX-241-49), and using an immunization strategy potent enough to generate a useful response in transgenic mice carrying human MHC (such as the A2 allele). Peptide analogs were interrogated ex vivo in the presence of competent APCs and the functional impact of T cells specific for natural (non-mutated) epitopes measured. […]
as §1, with “ELISA. […]” for “ELISA.”

HLA-A*0201 = HLA-A*0201 (Homo sapiens, UniProt P04439, D140Y/D185E/D98H/E176V/E277Q/G131W/G231S/I119V/I121R/I166T/I218V/L300P/L318F/N151K/N90K/P208A/P217A/Q86G/Q94H/R138H/R169H/T345S); assay: HLA-A*0201 binding characteristics of PRAME425-433 and analogs
Description: The positive control for binding was melan-A26-35 A27L. […] Cross reactivity with the native epitope was assessed by using the analog peptides to stimulate IFN-gamma secretion from a T cell line specific for the native epitope, essentially as described in Example 12. The data shown in FIGS. 16-18 were generated by stimulating with analog peptide at approximately 0.3 μM. […] In some cases, the reported values are the average of two determinations.

[4] = tested on: splenocytes responding to the PRAME425-433 peptide; assay: Cross-reactive immunogenicity of PRAME analog, IFN-γ ELISA of splenocytes; assay type: in vivo, HHD transgenic mice; conditions: pCTLR2 plasmid prime, peptide boost 2.5 μg day 28 and 31, versus native peptide boost
Description: This was followed by two peptide boosts (2.5 μg) at day 28 and 31, of native peptide or the PRAME epitope analog L426Nva L433Nle.
Mice were sacrificed at 10 days after the last boost, and splenocytes prepared and assessed for IFN-γ production after in vitro stimulation at 0.5×10^6 cells/well, with 10 μg/ml of native peptide.

GLPSIPVHPI (homo sapien) [PSMA288-297, reference compound]
binding characteristics (MHC class I (A2.1)): generally superior binding characteristics | immunogenicity against the native epitope [1]: poorly immunogenic; also recorded: poor immunogenicity

GLPSIPVHPV [PSMA288-297 I297V]
IFN-gamma production (cross-reactivity) compared to native peptide [2]: increased the amount of IFN-gamma produced | immunogenicity against the native epitope [1]: increased priming of immune responses against the native epitope

PRAME425-433 C-terminal amide: PRAME425-433 with carboxy-terminus modified by the addition of an amide group (SLLQHLIGL-NH2)
IFN-γ production (cross-reactivity) compared to native peptide [3]: within twofold of the native peptide

PSMA288-297 P1 Abu: PSMA288-297 analog, Abu at P1
IFN-gamma production (cross-reactivity) compared to native peptide [2]: marginally similar cross-reactivity | immunogenicity against the native epitope [1]: slightly higher (but significant) activity than the native peptide

PSMA288-297 PO Nva: PSMA288-297 analog, Nva at PO
stability of binding (half-time of dissociation) compared to native peptide (MHC class I (A2.1)): improved the stability of binding | IFN-gamma production (cross-reactivity) compared to native peptide [2]: increased the amount of IFN-gamma produced | immunogenicity against the native epitope [1]: slightly higher (but significant) activity than the native peptide

SNvaLQHLIGNle (S[Nva]LQHLIG[Nle]) [L426Nva L433Nle]
binding characteristics (affinity and stability) (HLA-A*0201): similar, somewhat improved binding characteristics | IFN-γ production (cross-reactivity) compared to native peptide [3]: significant level of cross-reactivity | IFN-γ production in response to the PRAME425-433 peptide (ELISA) [4]: significant enhancement of IFN-γ production
